Reference: patent US9345722B2, “Pharmaceutical formulations for the treatment of alzheimer's disease” (EMISPHERE TECHNOLOGIES, INC., priority 2006, dated 2016)

What was measured:
[1] = CPHPC added to solvents to the point of saturation (donor solutions); assay type: physicochemical; conditions: ethanolamine as solvent
Method: CPHC was added to the solvents listed in Table 1 below to the point of saturation: […]

[2] = Oral delivery of CPHPC in rats, serum CPHPC concentrations; assay type: in vivo
Method: One group of rats were dosed by oral gavage a solution containing 200 mg/kg SNAC and 10 mg/kg CPHPC (Group 1). The dosing volume was 1 mL/kg. Two groups of rats also received, respectively, control arms of 10 mg/kg CPHPC alone via oral gavage (Group 2) and 0.2 mg/kg of CPHPC via IV (Group 3).
Serum CPHPC concentrations […]) were measured over 40 minutes.

[3] = investigational studies, background; cited from earlier work

**Q.** Which “Solubility of CPHPC in ethanolamine compared with the other solvents” value [1] does the source give for `O=C(O)[C@H]1CCCN1C(=O)CCCCC(=O)N1CCC[C@@H]1C(=O)O` [CPHPC, R-1-(6-(R-2-carboxy-pyrrolidin-1-yl)-6-oxo-hexanoyl)pyrrolidine-2-carboxylic acid] here?
**A.** much more soluble in ethanolamine

**Q.** What about the Serum CPHPC concentration ([2]; Group 1: 200 mg/kg SNAC and 10 mg/kg CPHPC via PO, 0 min.) of the same molecule?
**A.** 0 ng/mL

**Q.** What about the Serum CPHPC concentration ([2]; Group 1: 200 mg/kg SNAC and 10 mg/kg CPHPC via PO, 5 min.) of the same molecule?
**A.** 2960 ± 1210 ng/mL

**Q.** What about the Serum CPHPC concentration ([2]; Group 1: 200 mg/kg SNAC and 10 mg/kg CPHPC via PO, 10 min.) of the same molecule?
**A.** 5480 ± 526 ng/mL

**Q.** And the Serum CPHPC concentration ([2]; Group 1: 200 mg/kg SNAC and 10 mg/kg CPHPC via PO, 20 min.)?
**A.** 2800 ± 400 ng/mL

**Q.** And the Serum CPHPC concentration ([2]; Group 1: 200 mg/kg SNAC and 10 mg/kg CPHPC via PO, 40 min.)?
**A.** 1440 ± 219 ng/mL

**Q.** And the Serum CPHPC concentration ([2]; Group 2: 10 mg/kg CPHPC alone via PO, 0 min.)?
**A.** 0 ng/mL

**Q.** What about the Serum CPHPC concentration ([2]; Group 2: 10 mg/kg CPHPC alone via PO, 5 min.) of the same molecule?
**A.** 1060 ± 107 ng/mL

**Q.** What about the Serum CPHPC concentration ([2]; Group 2: 10 mg/kg CPHPC alone via PO, 10 min.) of the same molecule?
**A.** 1420 ± 171 ng/mL

**Q.** And the Serum CPHPC concentration ([2]; Group 2: 10 mg/kg CPHPC alone via PO, 20 min.)?
**A.** 667 ± 97.1 ng/mL

**Q.** And the Serum CPHPC concentration ([2]; Group 2: 10 mg/kg CPHPC alone via PO, 40 min.)?
**A.** 175 ± 15 ng/mL

**Q.** What about the Serum CPHPC concentration ([2]; Group 3: 0.2 mg/kg CPHPC via IV, 0 min.) of the same molecule?
**A.** 0 ng/mL

**Q.** And the Serum CPHPC concentration ([2]; Group 3: 0.2 mg/kg CPHPC via IV, 5 min.)?
**A.** 223 ± 19.5 ng/mL

**Q.** And the Serum CPHPC concentration ([2]; Group 3: 0.2 mg/kg CPHPC via IV, 10 min.)?
**A.** 229 ± 44.8 ng/mL

**Q.** And the Serum CPHPC concentration ([2]; Group 3: 0.2 mg/kg CPHPC via IV, 20 min.)?
**A.** 170 ± 26.2 ng/mL

**Q.** And the Serum CPHPC concentration ([2]; Group 3: 0.2 mg/kg CPHPC via IV, 40 min.)?
**A.** 65.4 ± 25.7 ng/mL

**Q.** And the oral bioavailability [3]?
**A.** poor oral bioavailability
